Data as given in paper PMC7982320 (Pharmacology Research & Perspectives, 2021).
Entries after “also recorded” stand apart in the source; their conditions may differ.

Columns and labels:
[1] = system: CYP isoforms (1A2, 2B6, 2C8, 2C9, 2C19, 2D6, 3A4); assay: Time‐dependent and mechanism‐based CYP inhibition; type: in vitro ADME, human; settings: 30 min preincubation in absence and presence of NADPH
[2] = target: T1, human OAT1 (Homo sapiens, UniProt Q4U2R8); assay: Transporter inhibition, uptake assay; type: in vitro ADME
T1 sequence (Q4U2R8 1-563): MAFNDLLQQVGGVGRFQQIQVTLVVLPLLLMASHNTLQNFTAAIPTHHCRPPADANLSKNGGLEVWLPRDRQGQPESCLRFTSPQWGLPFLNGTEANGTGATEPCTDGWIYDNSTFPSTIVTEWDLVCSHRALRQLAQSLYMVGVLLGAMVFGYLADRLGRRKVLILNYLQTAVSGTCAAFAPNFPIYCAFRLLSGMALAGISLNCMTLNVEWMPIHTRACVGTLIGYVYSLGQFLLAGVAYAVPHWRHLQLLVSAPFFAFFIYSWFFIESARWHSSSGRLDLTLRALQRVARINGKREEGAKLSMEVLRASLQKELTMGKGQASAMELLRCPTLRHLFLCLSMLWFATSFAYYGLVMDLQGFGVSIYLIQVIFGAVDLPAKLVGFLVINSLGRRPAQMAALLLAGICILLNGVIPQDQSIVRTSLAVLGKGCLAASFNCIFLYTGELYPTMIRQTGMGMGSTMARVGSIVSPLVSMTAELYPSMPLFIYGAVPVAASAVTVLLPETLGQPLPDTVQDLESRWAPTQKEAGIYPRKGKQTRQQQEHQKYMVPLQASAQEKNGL

[3] = healthy male subjects, single oral dose of 60 mg 14C‐DFZ; cited from earlier work
[4] = system: CYP2B6; assay: in vitro; type: in vitro ADME, human; settings: 48 h

SMILES: CC1=N[C@]2(C(=O)CO)[C@@H](C[C@H]3[C@@H]4C[C@@H](O)C5=CC(=O)C=C[C@]5(C)[C@H]4[C@@H](O)C[C@@]32C)O1 [6β‐OH‐21‐desDFZ, 6β‐Hydroxy‐21‐desacetyl deflazacort]
- time‐dependent or mechanism‐based inhibition (IC50 shift) [1]: neither time‐dependent nor metabolism‐based; also recorded: did not appear to be a time‐dependent or mechanism‐based inhibitor
- inhibitory interaction with transporter ([2]; OAT1, up to 50 µM): did not show interaction; also recorded: no inhibitory interaction
- Maximum inhibition at 50 µM ([2]; OAT1 UPT, n = 3): <20 % of control
- share of 0–24 h plasma levels of total radioactivity [3]: 25%
- CYP2B6 enzyme activity fold induction ([4]; donor one, 0.002 µM): 0.921 fold
- CYP2B6 mRNA fold induction ([4]; donor one, 0.002 µM): 0.680 fold
- CYP2B6 enzyme activity fold induction ([4]; donor one, 0.01 µM): 0.826 fold
- CYP2B6 mRNA fold induction ([4]; donor one, 0.01 µM): 0.750 fold
- CYP2B6 enzyme activity fold induction ([4]; donor one, 0.05 µM): 0.767 fold
- CYP2B6 mRNA fold induction ([4]; donor one, 0.05 µM): 0.736 fold
- CYP2B6 enzyme activity fold induction ([4]; donor one, 0.25 µM): 0.752 fold
- CYP2B6 mRNA fold induction ([4]; donor one, 0.25 µM): 0.794 fold
- CYP2B6 enzyme activity fold induction ([4]; donor one, 5 µM): 0.832 fold
- CYP2B6 mRNA fold induction ([4]; donor one, 5 µM): 0.616 fold
- CYP2B6 enzyme activity fold induction ([4]; donor one, 10 µM): 0.814 fold
- CYP2B6 mRNA fold induction ([4]; donor one, 10 µM): 0.663 fold
- CYP2B6 enzyme activity fold induction ([4]; donor one, 20 µM): 0.896 fold
- CYP2B6 mRNA fold induction ([4]; donor one, 20 µM): 0.756 fold
- CYP2B6 enzyme activity fold induction ([4]; donor three, 0.002 µM): 0.836 fold
- CYP2B6 mRNA fold induction ([4]; donor three, 0.002 µM): 0.704 fold
- CYP2B6 enzyme activity fold induction ([4]; donor three, 0.01 µM): 0.829 fold
- CYP2B6 mRNA fold induction ([4]; donor three, 0.01 µM): 0.745 fold
- CYP2B6 enzyme activity fold induction ([4]; donor three, 0.05 µM): 0.829 fold
- CYP2B6 mRNA fold induction ([4]; donor three, 0.05 µM): 0.721 fold
- CYP2B6 enzyme activity fold induction ([4]; donor three, 0.25 µM): 0.810 fold
- CYP2B6 mRNA fold induction ([4]; donor three, 0.25 µM): 0.726 fold
- CYP2B6 enzyme activity fold induction ([4]; donor three, 5 µM): 1.01 fold
- CYP2B6 mRNA fold induction ([4]; donor three, 5 µM): 0.791 fold
- CYP2B6 enzyme activity fold induction ([4]; donor three, 10 µM): 1.13 fold
- CYP2B6 mRNA fold induction ([4]; donor three, 10 µM): 0.806 fold
- CYP2B6 enzyme activity fold induction ([4]; donor three, 20 µM): 1.08 fold
- CYP2B6 mRNA fold induction ([4]; donor three, 20 µM): 0.840 fold
- CYP2B6 enzyme activity fold induction ([4]; donor two, 0.002 µM): 0.960 fold
- CYP2B6 mRNA fold induction ([4]; donor two, 0.002 µM): 0.643 fold
- CYP2B6 enzyme activity fold induction ([4]; donor two, 0.01 µM): 0.895 fold
- CYP2B6 mRNA fold induction ([4]; donor two, 0.01 µM): 0.522 fold
- CYP2B6 enzyme activity fold induction ([4]; donor two, 0.05 µM): 0.944 fold
- CYP2B6 mRNA fold induction ([4]; donor two, 0.05 µM): 0.571 fold
- CYP2B6 enzyme activity fold induction ([4]; donor two, 0.25 µM): 0.963 fold
- CYP2B6 mRNA fold induction ([4]; donor two, 0.25 µM): 0.622 fold
- CYP2B6 enzyme activity fold induction ([4]; donor two, 5 µM): 1.22 fold
- CYP2B6 mRNA fold induction ([4]; donor two, 5 µM): 0.515 fold
- CYP2B6 enzyme activity fold induction ([4]; donor two, 10 µM): 1.20 fold
- CYP2B6 mRNA fold induction ([4]; donor two, 10 µM): 0.596 fold
- CYP2B6 enzyme activity fold induction ([4]; donor two, 20 µM): 1.40 fold
- CYP2B6 mRNA fold induction ([4]; donor two, 20 µM): 0.809 fold
- induction of CYP2B6 (mRNA or enzyme activity), conclusion ([4]; human hepatocytes, three donors): no meaningful concentration‐dependent induction; also recorded: did not appear to be an inducer; also recorded: did not induce
